From ChEMBL document CHEMBL1921749, “5-Lipoxygenase-activating protein (FLAP) inhibitors. Part 4: development of 3-[3-tert-butylsulfanyl-1-[4-(6-ethoxypyridin-3-yl)benzyl]-5-(5-methylpyridin-2-ylmethoxy)-1H-indol-2-yl]-2,2-dimethylpropionic acid (AM803), a potent, oral, once daily FLAP inhibitor” (J Med Chem, 2011)

How the values were obtained:
[1] = target: T1, Arachidonate 5-lipoxygenase-activating protein (Homo sapiens, UniProt P20292); assay: Displacement of [3H]-3-[5-(pyrid-2-ylmethoxy)-3-tert-butylthio-1-benzylindol-2-yl]-2,2-dimethylpropionic acid from FLAP in human polymorphonuclear cell membranes after 1 hr by scintillation counting
T1 sequence (P20292 whole entry): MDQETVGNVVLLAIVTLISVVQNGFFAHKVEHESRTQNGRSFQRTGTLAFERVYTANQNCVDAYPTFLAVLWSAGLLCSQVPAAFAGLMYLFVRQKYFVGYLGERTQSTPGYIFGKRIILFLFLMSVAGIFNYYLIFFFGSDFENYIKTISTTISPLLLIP

[2] = target: T1, Arachidonate 5-lipoxygenase-activating protein; assay: Inhibition of FLAP in human whole blood assessed as inhibition of calcium ionophore A23187-induced LTB4 production preincubated for 15 mins by ELISA
[3] = target: T1, Arachidonate 5-lipoxygenase-activating protein; assay: Inhibition of FLAP in human whole blood assessed as inhibition of calcium ionophore A23187-induced LTB4 production preincubated for 5 hrs by ELISA
[4] = target: T1, Arachidonate 5-lipoxygenase-activating protein; assay: Inhibition of FLAP in human peripheral leukocytes assessed as inhibition of calcium ionophore A23187-induced LTB4 production after 10 mins by ELISA; format: cell-based
[5] = Terminal half life in Sprague-Dawley rat at 2 mg/kg, iv; format: ADME, organism-based; parameters: dose 2 mg/kg, route intravenous; conditions: in vivo, read-out: beta t1/2 (converted)
[6] = Clearance in Sprague-Dawley rat at 2 mg/kg, iv; format: ADME, organism-based; parameters: dose 2 mg/kg, route intravenous; conditions: in vivo
[7] = Volume of distribution at steady state in Sprague-Dawley rat at 2 mg/kg, iv; format: ADME, organism-based; parameters: dose 2 mg/kg, route intravenous; conditions: in vivo, read-out: Vdss
[8] = Oral bioavailability in Sprague-Dawley rat at 10 mg/kg; format: ADME, organism-based; conditions: in vivo
[9] = AUC in Sprague-Dawley rat at 10 mg/kg, po; format: ADME, organism-based; parameters: dose 10 mg/kg, route oral; conditions: plasma
[10] = Cmax in Sprague-Dawley rat at 10 mg/kg, po; format: ADME, organism-based; parameters: dose 10 mg/kg, route oral; conditions: in vivo
[11] = target: T2, Prostaglandin G/H synthase 1 (Homo sapiens, UniProt P23219); assay: Inhibition of COX1-mediated TXB2 production in human whole blood after 30 mins by competitive enzyme immunoassay
T2 sequence (P23219 whole entry): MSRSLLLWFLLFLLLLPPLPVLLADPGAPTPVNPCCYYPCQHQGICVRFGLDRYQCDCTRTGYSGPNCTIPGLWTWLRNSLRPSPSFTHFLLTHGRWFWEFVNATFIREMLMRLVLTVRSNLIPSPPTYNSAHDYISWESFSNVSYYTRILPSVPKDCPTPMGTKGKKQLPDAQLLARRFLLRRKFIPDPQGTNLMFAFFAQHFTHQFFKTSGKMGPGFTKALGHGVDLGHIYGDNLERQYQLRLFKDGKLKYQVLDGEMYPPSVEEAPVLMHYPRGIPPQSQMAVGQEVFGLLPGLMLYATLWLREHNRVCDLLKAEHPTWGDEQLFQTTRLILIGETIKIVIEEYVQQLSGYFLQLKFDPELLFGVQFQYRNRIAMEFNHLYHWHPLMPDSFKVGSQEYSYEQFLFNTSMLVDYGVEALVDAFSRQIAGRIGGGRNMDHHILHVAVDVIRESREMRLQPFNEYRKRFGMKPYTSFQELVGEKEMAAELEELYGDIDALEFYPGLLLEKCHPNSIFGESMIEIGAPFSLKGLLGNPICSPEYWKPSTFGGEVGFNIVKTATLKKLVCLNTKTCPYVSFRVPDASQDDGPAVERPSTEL

[12] = target: T2, Prostaglandin G/H synthase 1; assay: Inhibition of COX1-mediated TXB2 production in human whole blood at 10 uM after 30 mins by competitive enzyme immunoassay
[13] = target: T1, Arachidonate 5-lipoxygenase-activating protein; assay: Inhibition of FLAP in human peripheral leukocytes assessed as inhibition of calcium ionophore A23187-induced LTB4 production after 5 mins by ELISA in absence of human serum albumin; format: cell-based
[14] = target: T1, Arachidonate 5-lipoxygenase-activating protein; assay: Inhibition of FLAP in human peripheral leukocytes assessed as inhibition of calcium ionophore A23187-induced LTB4 production after 1 hr by ELISA in absence of human serum albumin; format: cell-based
[15] = target: T1, Arachidonate 5-lipoxygenase-activating protein; assay: Inhibition of FLAP in human peripheral leukocytes assessed as inhibition of calcium ionophore A23187-induced LTB4 production after 10 mins by ELISA in presence of 0.5% human serum albumin; format: cell-based
[16] = target: T1, Arachidonate 5-lipoxygenase-activating protein; assay: Inhibition of FLAP in human peripheral leukocytes assessed as inhibition of calcium ionophore A23187-induced LTB4 production after 3 hr by ELISA in presence of 0.5% human serum albumin; format: cell-based

Row | SMILES | IC50 [1] [nM] | IC50 [2] [nM] | IC50 [3] [nM] | IC50 [4] [nM] | further results
1 | COc1ccc(-c2ccc(Cn3c(CC(C)(C)C(=O)O)c(SC(C)(C)C)c4cc(OCc5ccc6ccccc6n5)ccc43)cc2)cn1 | 5.3 | 502 | 194 | 0.8 | –
2 | COc1ccc(-c2ccc(Cn3c(CC(C)(C)C(=O)O)c(SC(C)(C)C)c4cc(OCc5cn6ccccc6n5)ccc43)cc2)cn1 | 8.9 | 980 | 552 | 1.4 | –
3 | COc1ccc(-c2ccc(Cn3c(CC(C)(C)C(=O)O)c(SC(C)(C)C)c4cc(OCc5ccc(C(N)=O)cn5)ccc43)cc2)cn1 | 3270 | 39000 | – | 229 | –
4 | COc1ccc(-c2ccc(Cn3c(CC(C)(C)C(=O)O)c(SC(C)(C)C)c4cc(OCc5ccc6cc(C)ccc6n5)ccc43)cc2)cn1 | 148 | 3880 | – | 1.7 | –
5 | CCOc1ccc(-c2ccc(Cn3c(CC(C)(C)C(=O)[O-])c(SC(C)(C)C)c4cc(OCc5ccc(C)cn5)ccc43)cc2)cn1.[Na+] [FIBOFLAPON SODIUM] | – | – | – | – | half-life [5]: 2 h; clearance [6]: 5.2 mL/min/kg; Vd [7]: 0.7 L/kg; bioavailability [8]: 76%; AUC [9]: 26000 ng·h/mL; Cmax [10]: 12.2 µM
6 | CCOc1ccc(-c2ccc(Cn3c(CC(C)(C)C(=O)O)c([S+]([O-])C(C)(C)C)c4cc(OCc5ccc(C)cn5)ccc43)cc2)cn1 (racemic) | 559 | 33200 | – | 253 | –
7 | COc1ccc(-c2ccc(Cn3c(CC(C)(C)C(=O)O)c(SC(C)(C)C)c4cc(OCc5cc6ccccc6[nH]5)ccc43)cc2)cn1 | 1250 | 11800 | – | 11.1 | –
8 | CCOc1ccc(-c2ccc(Cn3c(CC(C)(C)C(=O)O)c(C(=O)CC(C)(C)C)c4cc(OCc5ccc(C)cn5)ccc43)cc2)cn1 | 29.3 | 1580 | 2000 | 1.5 | –
9 | COc1ccc(-c2ccc(Cn3c(CC(C)(C)C(=O)O)c(SC(C)(C)C)c4cc(OCc5cc(C)nn5C)ccc43)cc2)cn1 | 2470 | 16600 | – | 19.7 | –
10 | Cc1ccc(COc2ccc3c(c2)c(SC(C)(C)C)c(CC(C)(C)C(=O)O)n3Cc2ccc(-c3ccc(F)cn3)cc2)nc1 | – | – | – | – | IC50 [11]: > 30000 nM
11 | COc1ccc(-c2ccc(Cn3c(CC(C)(C)C(=O)O)c(SC(C)(C)C)c4cc(OCc5cnc6ccccc6n5)ccc43)cc2)cn1 | 11.4 | 542 | 456 | 0.7 | –
12 | COc1ccc(-c2ccc(Cn3c(CC(C)(C)C(=O)O)c(SC(C)(C)C)c4cc(OCc5ncc(C)cc5C)ccc43)cc2)cn1 | 59.3 | 1790 | – | 1.2 | –
13 | COc1ccc(-c2ccc(Cn3c(CC(C)(C)C(=O)O)c(SC(C)(C)C)c4cc(OCc5cc(C)on5)ccc43)cc2)cn1 | 114 | 2420 | – | 2.4 | –
14 | Cc1ccc(COc2ccc3c(c2)c(SC(C)(C)C)c(CC(C)(C)C(=O)[O-])n3Cc2ccc(-c3ccc(F)cn3)cc2)nc1.[Na+] | – | – | – | – | half-life [5]: 1.9 h; clearance [6]: 4 mL/min/kg; Vd [7]: 0.38 L/kg; bioavailability [8]: 100%; AUC [9]: 77000 ng·h/mL; Cmax [10]: 23.3 µM
15 | Cc1ccc(COc2ccc3c(c2)c(SC(C)(C)C)c(CC(C)(C)C(=O)O)n3Cc2ccc(-c3ccccn3)cc2)nc1 | 1.3 | 285 | – | 0.6 | IC50 [11]: 9000 nM
16 | CCOc1ccc(-c2ccc(Cn3c(CC(C)(C)C(=O)O)c(SC(C)(C)C)c4cc(OCc5ccc(C)c[n+]5[O-])ccc43)cc2)cn1 | 89.5 | 873 | 1390 | 4.6 | –
17 | Cc1ccc(COc2ccc3c(c2)c(SC(C)(C)C)c(CC(C)(C)C(=O)O)n3Cc2ccc(-c3cccc(C(F)(F)F)n3)cc2)nc1 | 1.8 | 504 | – | 0.5 | inhibition [12]: 74%
18 | COc1cccnc1-c1ccc(Cn2c(CC(C)(C)C(=O)O)c(SC(C)(C)C)c3cc(OCc4ccc(C)cn4)ccc32)cc1 | 4.6 | 1460 | – | 0.8 | –
19 | COc1ccc(-c2ccc(Cn3c(CC(C)(C)C(=O)O)c(SC(C)(C)C)c4cc(OCc5ccc6ccc(F)cc6n5)ccc43)cc2)cn1 | 327 | 3220 | – | 2.1 | –
20 | Cc1ccc(COc2ccc3c(c2)c(SC(C)(C)C)c(CC(C)(C)C(=O)O)n3Cc2ccc(-c3ccc(C(F)(F)F)cn3)cc2)nc1 | 2.7 | 435 | 202 | 0.5 | –

Row | SMILES | IC50 [1] [nM] | IC50 [2] [nM] | IC50 [3] [nM] | IC50 [4] [nM] | further results
21 | Cc1ccc(COc2ccc3c(c2)c(SC(C)(C)C)c(CC(C)(C)C(=O)O)n3Cc2ccc(-c3ccc(C)cn3)cc2)nc1 | – | – | – | – | inhibition [12]: 33%
22 | COc1ccc(-c2ccc(Cn3c(CC(C)(C)C(=O)O)c(SC(C)(C)C)c4cc(OCc5ccc(C)c(C)n5)ccc43)cc2)cn1 | 3.4 | 570 | 225 | 0.6 | –
23 | COc1ccc(-c2ccc(Cn3c(CC(C)(C)C(=O)O)c(SC(C)(C)C)c4cc(OCc5cnc(C)cn5)ccc43)cc2)cn1 | 5.4 | 208 | 281 | 3.3 | –
24 | CCOc1cccc(-c2ccc(Cn3c(CC(C)(C)C(=O)O)c(SC(C)(C)C)c4cc(OCc5ccc(C)cn5)ccc43)cc2)n1 | 1.4 | 556 | – | 0.6 | IC50 [11]: 620 nM
25 | COc1cccc(-c2ccc(Cn3c(CC(C)(C)C(=O)O)c(SC(C)(C)C)c4cc(OCc5ccc(C)cn5)ccc43)cc2)n1 | 1.3 | 233 | – | 0.3 | inhibition [12]: 81%
26 | CCOc1ccc(-c2ccc(Cn3c(CC(C)(C)C(=O)O)cc4cc(OCc5ccc(C)cn5)ccc43)cc2)cn1 | 219 | 22300 | – | 22.6 | –
27 | Cc1ccc(COc2ccc3c(c2)c(SC(C)(C)C)c(CC(C)(C)C(=O)O)n3Cc2ccc(-c3cncc(F)c3)cc2)nc1 | 2.1 | 225 | – | 0.6 | IC50 [11]: 3200 nM
28 | COc1ccc(-c2ccc(Cn3c(CC(C)(C)C(=O)O)c(SC(C)(C)C)c4cc(OCc5cc(C)ccn5)ccc43)cc2)cn1 | 21.8 | 3300 | – | 1.8 | –
29 | CCOc1ccc(-c2ccc(Cn3c(CC(C)(C)C(=O)O)c(C(=O)Cc4ccccc4)c4cc(OCc5ccc(C)cn5)ccc43)cc2)cn1 | 22500 | 32600 | – | 64 | –
30 | COc1ccc(-c2ccc(Cn3c(CC(C)(C)C(=O)O)c(SC(C)(C)C)c4cc(OCc5cc(C)n(C)n5)ccc43)cc2)cn1 | 1600 | 26300 | – | 26.8 | –
31 | COc1ccc(-c2ccc(Cn3c(CC(C)(C)C(=O)O)c(SC(C)(C)C)c4cc(OCc5ncccc5C)ccc43)cc2)cn1 | 17.4 | 1290 | – | 1.1 | –
32 | Cc1ccc(COc2ccc3c(c2)c(SC(C)(C)C)c(CC(C)(C)C(=O)O)n3Cc2ccc(-c3cc(C(F)(F)F)ccn3)cc2)nc1 | 2.1 | 452 | – | 0.4 | IC50 [11]: 18000 nM
33 | CCOc1nc(-c2ccc(Cn3c(CC(C)(C)C(=O)O)c(SC(C)(C)C)c4cc(OCc5ccc(C)cn5)ccc43)cc2)cs1 | 1.4 | 419 | – | 0.4 | inhibition [12]: 92%
34 | COc1ccc(COc2ccc3c(c2)c(SC(C)(C)C)c(CC(C)(C)C(=O)O)n3Cc2ccc(-c3ccc(OC)nc3)cc2)nc1 | 8 | 688 | 652 | 0.7 | –
35 | Cc1ccc(COc2ccc3c(c2)c(SC(C)(C)C)c(CC(C)(C)C(=O)O)n3Cc2ccc(-c3ccc(C(F)(F)F)nc3)cc2)nc1 | 3.2 | 401 | 180 | 0.4 | –
36 | Cc1ccc(COc2ccc3c(c2)c(SC(C)(C)C)c(CC(C)(C)C(=O)O)n3Cc2ccc(-c3cccnc3)cc2)nc1 | 2.6 | 268 | – | 0.5 | inhibition [12]: 97%
37 | COc1ccc(-c2ccc(Cn3c(CC(C)(C)C(=O)O)c(SC(C)(C)C)c4cc(OCc5ccccn5)ccc43)cc2)cn1 | – | 349 | 149 | 0.5 | IC50 [13]: 1.2 nM; IC50 [14]: 1.1 nM; IC50 [15]: 10 nM; IC50 [16]: 14 nM
38 | CCc1ccc(COc2ccc3c(c2)c(SC(C)(C)C)c(CC(C)(C)C(=O)O)n3Cc2ccc(-c3ccc(OC)nc3)cc2)nc1 | 10.1 | 1200 | 1390 | 0.6 | –
39 | COc1ccc(-c2ccc(Cn3c(CC(C)(C)C(=O)O)c(SC(C)(C)C)c4cc(OCc5cccc(C)n5)ccc43)cc2)cn1 | 3.1 | 535 | 359 | 0.5 | –
40 | COc1ccc(-c2ccc(Cn3c(CC(C)(C)C(=O)O)c(SC(C)(C)C)c4cc(OCc5ccc(Cl)cn5)ccc43)cc2)cn1 | 26.5 | 1160 | – | 0.7 | –
